# Assay results from patent publication US12428412B2 (DANA-FARBER CANCER INSTITUTE, INC., priority 2018, dated 2025).
# “Also recorded” adds a separate entry of the source.
# Columns and labels:
# [1] = test system: CRBN k/o cell lines; assay: Cell viability in CRBN knockout Kelly cell lines; assay type: cell-based
# Procedure: (§1) CPD 1 was tested in CRBN knockout (k/o) Kelly cell lines. The experimental protocol is the same as in Example 24.
# [2] = In vivo study blood analysis; settings: mice, after 14 days
# Excerpt: Blood samples were taken from mice treated daily with 40 mpk intraperitoneal injection (IP) after 14 days.
# [3] = test system: H3K27Ac; assay: Immunohistochemistry (IHC) staining of liver from MTD study, H3K27Ac; assay type: in vivo; settings: normal mice, 40 mpk, 14-day treatment
# Excerpt: (§2) Immunohistochemistry (IHC) staining was used to examine a liver from MTD study. […] No changes in CBP and H3K27Ac levels were observed.
# [4] = target: T1, EP300 (Mus musculus, UniProt B2RWS6); assay: Immunohistochemistry (IHC) staining of liver from MTD study, EP300; assay type: in vivo; settings: normal mice, 40 mpk, 14-day treatment
# T1 construct: from tissue; host or cells: mouse liver (CD1 mice)
# Excerpt: as §2
# [5] = test system: Kelly cells; assay: ATPlite cell growth inhibition assay, Kelly cell lines treated 72 hours; assay type: cell-based
# Procedure: Compounds CPD 1 to CPD 22 were tested via ATPlite™ assay (ATPlite™ 1000 assay kit, PerkinElmer®, USA) using standard protocol. […] The signal is normalized to DMSO treated cells.
# [6] = target: cereblon (CRBN) (Homo sapiens, UniProt Q96SW2); assay: AlphaScreen assay, cereblon (CRBN); assay type: binding
# Excerpt: An AlphaLISA® assay for EP300 catalytic function (FIG. 3B) and an AlphaScreen™ assay for EP300 bromodomain and cereblon (CRBN) using biotinylated tagged small molecules as a probe for EP300 bromodomain and CRBN, respectively, were developed (FIG. 3C).
# AlphaScreen™ assay was used to determine the binding of inventive degrader compound toward both CRBN and HAT domain.
# [7] = Maximum tolerated dose (MTD) study in mice; assay type: in vivo; settings: mice, 10, 20 and 40 mg/kg
# Procedure: CPD 1 was tested in mice for maximum tolerated dose (MTD) (FIG. 6A). The mice were treated with 10 mg/kg (mpk), 20 mpk, and 40 mpk with 4 mice in each group. The compound was also tested in human CRBN knock in mice, the blood samples were collected after 21 day treatment. All the tested blood samples were normal.
# [8] = target: T2, CBP (Homo sapiens, UniProt Q92793); assay: Proteomics analysis in Kelly NB cells, CBP; assay type: cell-based; settings: 500 nM, 6 hours and 36 hours
# T2 construct: endogenous in cells; host or cells: Kelly neuroblastoma cells (incl. Ch2.2, LACZ and CRBN knockout lines)
# Procedure: FIG. 9C is a plot of the proteomics analysis results after treating Kelly NB cells with CPD 1 (500 nM) at 6 hours and 36 hours.
# [9] = Mouse PK after intraperitoneal injection, blood concentration by LCMS/MS; assay type: in vivo; settings: IP 10 mg/kg, male CD1 mice
# Procedure: The compound concentration in animal blood was measured by LCMS/MS through a series bleeding at different time points. […] A-485 half life is 0.7 h in mice.
# Maximum tolerance dose (MTD) of each candidate was determined in zebrafish embryos. 3-day-old zebrafish embryos were exposed to different drug concentrations and monitored for adverse health effects. […] Experiments were first carried out with compound CPD 1 as a guide in the further design of MTD assessment of lead EP300 degraders (FIG. 6B). The MTD of the degrader is also determined in mice in the similar manor. Briefly, mice were dosed with test compounds and blood and plasma is isolated at specific intervals post-administration (0.083, 0.25, 0.5, 1, 2, 4, 8, 12, and 24 h) and quantified for the presence of test article by LC/MS/MS (n=5 mice/compound). In vivo mouse PK experiments were used to determine these parameters and inform iterative rounds of medicinal chemistry for optimization of EP300 degraders (FIG. 6A). As degraders have a relatively large molecular weight, the proper formulation is investigated to increase the solubility and stability of the degraders for in vivo study. Together, these parameters, including the established MTD, are used to guide the in vivo study design, such as administration method, dosing, and schedule for the following experiment. The information obtained was also used to guide the degrader optimization conducted in Example 36.
# [10] = target: T3, EP300 (Homo sapiens, UniProt Q09472); assay: Immunoblot in CRBN knockout Kelly cell lines, EP300; assay type: cell-based; settings: CRBN-1 and CRBN-3 Kelly lines, 500 nM
# T3 construct: Whole cell lysates were collected using ice cold lysis buffer; endogenous in cells; host or cells: Kelly neuroblastoma cells (incl. Ch2.2, LACZ and CRBN knockout lines)
# Procedure: as §1
# [11] = test system: MM.1S cells; assay: 6-day MTT assay, MM.1S cells; assay type: cell-based; settings: 0-10 μM
# Procedure: Media from cell cultures was discarded. For adherent cells, the media was carefully aspirated. For suspension cells, the 96 well plate at 1,000×g, 4° C., was spun for 5 minutes in a microplate-compatible centrifuge and the media was carefully aspirated. The volume of existing media has to be the same for each sample. Fifty (50) μL of serum-free media and 50 μL of MTT solution were added into each well. The plate was incubated at 37° C. for 3 hours.
# After incubation, 150 μL of MTT solvent were added into each well. The plate was wrapped in foil and shaken on an orbital shaker for 15 minutes. Absorbance was read at OD=590 nm. Reading was performed within 1 hour.
# [12] = test system: MM.1S cells; assay: 4-day growth inhibition assay (ATPlite / cell counting kit), MM.1S cells; assay type: cell-based; settings: 0-10 μM
# Procedure: An aliquot of the ATP standard solution (ATPlite™ 1000 assay kit, PerkinElmer®, USA) was used to prepare a dilution series in water. A series of 100 μL of complete culture medium was pipetted without cells into the wells of the plate. To each well was added 50 μL of the mammalian cell lysis solution, and the plate was shaken for 5 minutes in an orbital shaker at 700 rpm. 10 μL of the ATP dilution series was added to the wells, and the plate was shaken for 5 minutes in an orbital shaker at 700 rpm. 50 μL of the substrate solution was added and the plate was shaken for 5 minutes in an orbital shaker at 700 rpm. The plate dark adapted the plate for 10 minutes prior to measuring the luminescence and then preparing a standard curve.
# [13] = test system: Kelly cells; assay: Colony formation assay, Kelly cells; assay type: cell-based; settings: 10 days
# Excerpt: The experimental method for the colony formation assay is as described in Durbin et al., Nat Genet. 50(9):1240-60 (2018).
# Sequence of cereblon (CRBN) (Q96SW2 whole entry): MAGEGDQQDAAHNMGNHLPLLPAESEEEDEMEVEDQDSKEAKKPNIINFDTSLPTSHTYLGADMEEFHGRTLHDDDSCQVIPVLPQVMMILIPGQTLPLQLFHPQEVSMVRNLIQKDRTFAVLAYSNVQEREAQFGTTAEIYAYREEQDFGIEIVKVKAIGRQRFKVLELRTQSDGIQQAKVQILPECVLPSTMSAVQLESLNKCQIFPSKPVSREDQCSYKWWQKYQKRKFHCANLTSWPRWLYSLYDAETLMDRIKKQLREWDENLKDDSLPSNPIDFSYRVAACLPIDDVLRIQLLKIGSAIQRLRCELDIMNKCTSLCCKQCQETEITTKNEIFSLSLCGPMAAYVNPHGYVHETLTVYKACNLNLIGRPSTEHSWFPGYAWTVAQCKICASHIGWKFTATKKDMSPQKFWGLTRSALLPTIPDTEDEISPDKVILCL
# T2 sequence (Q92793 whole entry): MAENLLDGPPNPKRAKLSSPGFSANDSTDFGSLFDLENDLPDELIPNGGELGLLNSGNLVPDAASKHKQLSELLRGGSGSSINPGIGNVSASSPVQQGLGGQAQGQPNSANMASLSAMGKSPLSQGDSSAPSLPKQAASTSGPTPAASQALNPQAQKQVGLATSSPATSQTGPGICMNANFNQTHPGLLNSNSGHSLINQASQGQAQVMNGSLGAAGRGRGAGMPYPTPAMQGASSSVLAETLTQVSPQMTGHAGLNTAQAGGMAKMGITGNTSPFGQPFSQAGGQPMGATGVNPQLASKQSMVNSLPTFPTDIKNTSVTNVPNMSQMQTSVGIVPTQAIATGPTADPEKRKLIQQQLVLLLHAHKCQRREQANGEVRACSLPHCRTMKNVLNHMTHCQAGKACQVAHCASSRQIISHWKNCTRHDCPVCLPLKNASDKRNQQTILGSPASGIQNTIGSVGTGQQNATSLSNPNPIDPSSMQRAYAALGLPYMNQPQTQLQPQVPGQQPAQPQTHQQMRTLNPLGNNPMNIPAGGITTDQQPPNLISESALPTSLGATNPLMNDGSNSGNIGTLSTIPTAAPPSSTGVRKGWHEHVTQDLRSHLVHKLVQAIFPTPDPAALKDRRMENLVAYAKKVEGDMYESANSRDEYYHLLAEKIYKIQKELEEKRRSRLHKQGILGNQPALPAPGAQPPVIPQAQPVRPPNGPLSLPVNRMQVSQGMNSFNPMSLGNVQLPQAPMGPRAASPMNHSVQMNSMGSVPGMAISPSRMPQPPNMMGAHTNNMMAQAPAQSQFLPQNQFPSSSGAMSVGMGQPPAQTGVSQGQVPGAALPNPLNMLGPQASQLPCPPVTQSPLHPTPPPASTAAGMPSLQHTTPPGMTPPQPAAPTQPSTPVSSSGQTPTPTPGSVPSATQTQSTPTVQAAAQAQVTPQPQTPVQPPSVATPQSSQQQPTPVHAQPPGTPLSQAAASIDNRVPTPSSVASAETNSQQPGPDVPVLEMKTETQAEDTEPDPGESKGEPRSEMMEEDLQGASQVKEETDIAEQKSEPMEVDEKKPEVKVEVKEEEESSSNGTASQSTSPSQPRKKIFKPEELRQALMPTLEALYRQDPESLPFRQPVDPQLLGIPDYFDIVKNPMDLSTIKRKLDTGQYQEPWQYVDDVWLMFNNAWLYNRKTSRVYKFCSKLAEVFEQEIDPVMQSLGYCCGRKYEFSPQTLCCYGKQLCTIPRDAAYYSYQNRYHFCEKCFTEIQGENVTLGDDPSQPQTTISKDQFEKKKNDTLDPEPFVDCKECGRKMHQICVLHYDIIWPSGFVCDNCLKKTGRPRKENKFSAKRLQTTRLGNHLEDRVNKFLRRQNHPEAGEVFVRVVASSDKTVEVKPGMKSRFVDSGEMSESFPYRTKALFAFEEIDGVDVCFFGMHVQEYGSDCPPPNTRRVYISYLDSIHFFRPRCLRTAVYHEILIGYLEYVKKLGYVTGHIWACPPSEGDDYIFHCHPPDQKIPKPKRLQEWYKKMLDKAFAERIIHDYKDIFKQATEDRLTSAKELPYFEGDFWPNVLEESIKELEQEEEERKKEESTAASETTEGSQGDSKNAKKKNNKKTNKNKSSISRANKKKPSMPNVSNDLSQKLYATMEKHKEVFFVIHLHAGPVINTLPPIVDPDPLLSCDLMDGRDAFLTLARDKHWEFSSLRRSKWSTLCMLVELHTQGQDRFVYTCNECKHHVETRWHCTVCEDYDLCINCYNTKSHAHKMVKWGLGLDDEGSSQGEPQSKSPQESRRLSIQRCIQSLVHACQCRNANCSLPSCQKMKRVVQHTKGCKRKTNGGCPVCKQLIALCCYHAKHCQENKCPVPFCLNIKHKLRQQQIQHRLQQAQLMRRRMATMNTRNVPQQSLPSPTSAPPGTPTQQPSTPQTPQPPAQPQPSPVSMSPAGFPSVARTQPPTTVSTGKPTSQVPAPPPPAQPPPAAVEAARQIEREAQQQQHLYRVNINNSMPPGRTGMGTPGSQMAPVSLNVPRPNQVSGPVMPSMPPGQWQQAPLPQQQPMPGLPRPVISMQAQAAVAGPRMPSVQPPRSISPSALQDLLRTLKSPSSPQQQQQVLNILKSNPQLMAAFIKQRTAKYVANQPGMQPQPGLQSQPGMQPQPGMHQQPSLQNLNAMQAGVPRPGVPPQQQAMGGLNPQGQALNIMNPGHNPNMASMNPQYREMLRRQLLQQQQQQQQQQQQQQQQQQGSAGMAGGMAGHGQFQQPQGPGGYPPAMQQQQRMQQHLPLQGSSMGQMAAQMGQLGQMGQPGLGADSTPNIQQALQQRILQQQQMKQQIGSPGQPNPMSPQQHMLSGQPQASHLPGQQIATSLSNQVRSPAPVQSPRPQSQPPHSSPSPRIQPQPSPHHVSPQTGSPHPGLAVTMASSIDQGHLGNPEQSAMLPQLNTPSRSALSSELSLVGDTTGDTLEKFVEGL
compound,measurement,setting,value
"C[C@H](N(Cc1ccc(F)cc1)C(=O)CN1C(=O)O[C@@]2(CCc3cc(NC(=O)CCCCCCCCCCCNc4ccc5c(c4)C(=O)N(C4CCC(=O)NC4=O)C5=O)ccc32)C1=O)C(F)(F)F (stereo partly drawn) [CPD 1, 12-((2-(2,6-dioxopiperidin-3-yl)-1,3-dioxoisoindolin-5-yl)amino)-N—((R)-3′-(2-((4-fluorobenzyl)((S)-1,1,1-trifluoropropan-2-yl)amino)-2-oxoethyl)-2′,4′-dioxo-2,3-dihydrospiro[indene-1,5′-oxazolidin]-5-yl)dodecanamide]",cell growth inhibition in CRBN k/o cell lines,[1],did not affect CRBN k/o cell lines
same,ALP,[2]; 40 mg/kg IP daily,51 U/L
same,ALT,[2]; 40 mg/kg IP daily,54 U/L
same,AST,[2]; 40 mg/kg IP daily,37 U/L
same,Albumin,[2]; 40 mg/kg IP daily,3.2 g/dL
same,Basophils,[2]; 40 mg/kg IP daily,0.02 K/μL
same,Creatinine,[2]; 40 mg/kg IP daily,0.17 mg/dL
same,Eosinophils,[2]; 40 mg/kg IP daily,0.10 K/μL
same,GGTP,[2]; 40 mg/kg IP daily,5
same,Hematocrit,[2]; 40 mg/kg IP daily,41.2%
same,Hemoglobin,[2]; 40 mg/kg IP daily,13.35 g/dL
same,Lymphocytes,[2]; 40 mg/kg IP daily,1.80 K/μL
same,Monocytes,[2]; 40 mg/kg IP daily,0.35 K/μL
same,Neutrophils,[2]; 40 mg/kg IP daily,1.2 K/μL
same,Platelet,[2]; 40 mg/kg IP daily,528 K/μL
same,WBC,[2]; 40 mg/kg IP daily,3.46 K/μL
same,toxicity by blood sample measurements,[2]; 40 mpk IP daily,not toxic
same,H3K27Ac level in liver tissue,[3],No changes
same,EP300 (P300) level in liver tissue,[4],A drop in P300 levels was observed
same,Kelly NB cell growth inhibition,"[5]; 72 hours, ATPlite, normalized to DMSO",outperformed positive control A485; also recorded: Cell growth inhibition was observed; also recorded: much higher potency compared to inhibitor alone
same,IC50,[5]; ND: not detected,0.166 µM
same,binding to cereblon (CRBN),[6],bound and bind
same,body weight loss,[7],no weight loss was observed
same,tolerability,[7],well tolerated
same,CBP level (proteomics),[8],No changes in the CBP level were observed
same,toxicity in PK study,[9],No toxicity was observed
same,Cmax,"[9]; mouse, whole blood, n=3",5 µM
same,half-life,"[9]; mouse, whole blood, n=3",13 h
same,EP300 degradation in CRBN k/o lines,[10],did not degrade
same,growth inhibition compared with A485,[11],outperformed inhibitor A485
same,growth inhibition compared with A485,[12],outperformed inhibitor A485
same,"Kelly cell growth, colony formation",[13],inhibited the Kelly cell growth in a dose dependent manner
